Data from article PMC4099110, “Synthesis and Evaluation of Novel Pyrroles and Pyrrolopyrimidines as Anti-Hyperglycemic Agents” (BioMed Research International, 2014).
Several values for one entry are separate records, joined by “and”; a condition that tells them apart may be missing. Identical values can stand only once.

Columns and labels:
Male Wistar rats = assay: Sucrose-Loaded Model (SLM), blood glucose AUC; type: in vivo, rat; settings: oral gavage, sucrose load 10 gm/kg, mean AUC of blood glucose 30-120 min, dose equivalent to Glimepiride 4 mg/kg by M.wt, vs untreated normal control
Description: The complete course of the experiment was conducted using male Wistar albino rats (200–250 g), reared and maintained in the animal house of the institution and provided free access to pelleted food and water ad libitum. The rats were maintained in a controlled environment (12 h light and dark cycle) for about a week for acclimatization. The protocol of the study was approved by the animal ethics committee of the Faculty of Pharmacy, Helwan University (10-01-2012). The study was conducted in accordance with the EC, directive 86/609/EEC for animal experiments.
Glimepiride (Amaryl) was used as a standard antidiabetic (4 mg/kg) in 1% gum acacia and administered orally. Equivalent doses of all derivatives were calculated according to their molecular weight [M·wt].
Male Wistar rats were fasted overnight. Blood was collected initially and then the compounds were given to corresponding groups consisting of six rats each by oral gavage. A sucrose load of (10 gm/kg) body weight was given to each rat after half an hour posttest treatment. Blood was collected in 30, 60, 90, and 120 min after sucrose load. The percentages (%) fallen in blood glucose level were calculated according to the AUC method.
Data were represented as mean area under curve (AUC) ± SD. Significant differences between groups was tested using GraphPad InStat (Graph software Inc., V 3.05, Ralph Stahlman, Purdue University). Appropriate graphs were plotted using Microsoft Excel 2007. P value less than 0.05 was considered statistically significant.

male Wistar albino rats = assay: Streptozotocin (STZ) model of diabetes, blood glucose AUC; type: in vivo, rat; settings: for Potency of antihyperglycemic derivatives compared to Amaryl: decrease in blood glucose relative to Amaryl = 100%, model not stated
Description: The complete course of the experiment was conducted using male Wistar albino rats (200-250 g), reared and maintained in the animal house of the institution and provided free access to pelleted food and water ad libitum. The rats were maintained in a controlled environment (12 h light and dark cycle) for about a week for acclimatization. The protocol of the study was approved by the animal ethics committee of the Faculty of Pharmacy, […] University (10-01-2012). The study was conducted in accordance with the EC, directive 86/609/EEC for animal experiments. […] Equivalent doses of all derivatives were calculated according to their molecular weight [M·wt]. Diabetes was induced in overnight fasted rats with a single intraperitoneal injection of streptozotocin (STZ) (Sigma-Aldrich, Co., St. Louis, USA. Catalog number: 1001062761) in a dose of 65 mg/kg. STZ was freshly dissolved in ice cold citrate buffer (0.01 M, pH 4.5) prior to injection. […] Group 2, diabetic + Glimepiride ([…]) (4 mg/kg), served as a reference antidiabetic drug. Groups (3-14) were given the various pyrrole derivatives ([…], b, f, and VIIIf, a, resp.). The treated groups administered the […] and different derivatives orally. For each group, blood glucose was estimated at zero, one, two, four, and six hours after oral administration of derivatives using glucometer (Gluco Dr Super Sensor, AllMedicus Co., Ltd., Anyang, Gyeonggi, Korea). Data were represented as mean area under curve (AUC) ± SD. Significant differences between groups was tested using GraphPad InStat (Graph software Inc., V 3.05, Ralph […], Purdue University). Appropriate graphs were plotted using Microsoft Excel 2007.

[1] = In vivo acute toxicity study, serum liver and kidney markers; design: species or system rat; settings: for ALP / ALT / AST / Creatinine: rat serum; for levels of sera ALT, AST, ALP, and creatinine versus control untreated group: rats
Description: Alanine aminotransferase (ALT) and aspartate aminotransferase (AST) activities in serum were measured according to the Reitman-Frankel calorimetric transaminase procedure, whereas alkaline phosphatase (ALP) was assayed by the kinetic enzymatic method by measuring the rate of hydrolysis of p-nitrophenyl phosphate by ALP according to Henry; all were measured as indicators of hepatic injury. Serum creatinine levels were assayed as an indicator for renal injury in the samples by a calorimetric method, using commercial diagnostic kits (Diamond Diagnostics, Egypt).

[2] = as above; settings: rat
[3] = oral, STZ 65 mg/kg i.p. diabetic rats, mean AUC of blood glucose 0-6 h, dose equivalent to Glimepiride 4 mg/kg by M.wt, vs diabetic control

Row | SMILES | inhibition in vivo at 4 mg/kg (Male Wistar rats; Rattus norvegicus, 2 h, read-out: % reduction in blood glucose compared to control, SLM) [%] | inhibition in vivo at 4 mg/kg (male Wistar albino rats; Rattus norvegicus, oral, STZ 65 mg/kg i.p. diabetic rats, mean AUC of blood glucose 0-6 h, dose equivalent to Glimepiride 4 mg/kg by M.wt, vs diabetic control, read-out: % reduction in blood glucose compared to control, STZ) [%] | Potency of antihyperglycemic derivatives compared to Amaryl (male Wistar albino rats) | % reduction in blood glucose compared to control, SLM (Male Wistar rats) | % reduction in blood glucose compared to control, STZ (male Wistar albino rats; [3]) | melting point [°C] | ALP [1] [U/L] | ALT [1] [U/L] | AST [1] [U/L] | Creatinine [1] [mg/dL] | levels of sera ALT, AST, ALP, and creatinine versus control untreated group [1] | death or toxicity symptoms [2]
1 | CCC1=C(C)CN(C(=O)NCCc2ccc(S(=O)(=O)NC(=O)N[C@H]3CC[C@H](C)CC3)cc2)C1=O [Amaryl, Glimepiride, reference compound] | 27.7 | 30.4 | 100% |  |  |  |  |  |  |  |  | 
2 | Cc1nc(Cl)c2c(-c3ccccc3)c(-c3ccccc3)n(-c3c(C)n(C)n(-c4ccccc4)c3=O)c2n1 [IVg, 4-(4-Chloro-2-methyl-5,6-diphenyl-7H-pyrrolo[2,3-d]pyrimidin-7-yl)-1,5-dimethyl-2-phenyl-1H-pyrazol-3(2H)-one] |  |  |  | 13 ^ a % | 11.2 ^ a % | 158 to 160 |  |  |  |  |  | 
3 | N#Cc1c(-c2ccccc2)c(-c2ccccc2)n(Cc2ccccc2)c1N [Ia] |  |  | 109.4% and 109.43% | 17.4% and 17.4 ^ a % | 33.3% and 33.3 ^ a % |  | 68.5 ± 12.3 | 17.9 ± 2.7 | 69.4 ± 9.5 | 0.8 ± 0.16 | not significantly changed | did not die or show any toxicity symptoms
4 | Cc1c(-n2cc(-c3ccccc3)c(C#N)c2N)c(=O)n(-c2ccccc2)n1C [Ie, 2-Amino-1-(1,5-dimethyl-3-oxo-2-phenyl-2,3-dihydro-1H -pyrazol-4-yl)-4-phenyl-1H -pyrrole-3-carbonitrile] |  |  | 97% and 96.99% | 16.7% and 16.7 ^ a % | 29.5% and 29.5 ^ a % |  | 73.9 ± 13.2 | 20.5 ± 3.1 | 62.7 ± 9.7 | 0.77 ± 0.14 | not significantly changed | did not die or show any toxicity symptoms
